The results in this text go back to ChEMBL document CHEMBL1152685, “Structural basis of the selectivity of the beta(2)-adrenergic receptor for fluorinated catecholamines” (Bioorg Med Chem, 2009).

The structures appear in SMILES notation.

The target of assay [1] is Beta-2 adrenergic receptor (Homo sapiens, UniProt P07550). The assay is described as follows: Displacement of [3H]dihydroalprenolol from human adrenergic beta2 receptor expressed in COS7 cell membrane.
For assay [2], the target named is Beta-2 adrenergic receptor (Homo sapiens, UniProt P07550, V117C). The assay is described as follows: Displacement of [3H]dihydroalprenolol from human adrenergic beta2 receptor V117C mutant expressed in COS7 cell membrane.
Assay [3] has as its target Beta-2 adrenergic receptor (Homo sapiens, UniProt P07550, N293L). The assay is described as follows: Displacement of [3H]dihydroalprenolol from human adrenergic beta2 receptor N293L mutant expressed in COS7 cell membrane.
The target of assay [4] is Beta-2 adrenergic receptor (Homo sapiens, UniProt P07550, N293A). The assay is described as follows: Displacement of [3H]dihydroalprenolol from human adrenergic beta2 receptor N293A mutant expressed in COS7 cell membrane.
For assay [5], the target named is Beta-2 adrenergic receptor (Homo sapiens, UniProt P07550, N293Q). The assay is described as follows: Displacement of [3H]dihydroalprenolol from human adrenergic beta2 receptor N293Q mutant expressed in COS7 cell membrane.
The target in assay [6] is Beta-2 adrenergic receptor (Homo sapiens, UniProt P07550, N293F). The assay is described as follows: Displacement of [3H]dihydroalprenolol from human adrenergic beta2 receptor N293F mutant expressed in COS7 cell membrane.
Assay [7] concerns the target Beta-2 adrenergic receptor (Homo sapiens, UniProt P07550, D192G/F193V). The assay is described as follows: Displacement of [3H]dihydroalprenolol from human adrenergic beta2 receptor D192G, F193V mutant expressed in COS7 cell membrane.

Chain of Beta-2 adrenergic receptor (Homo sapiens, UniProt P07550) (P07550 whole entry): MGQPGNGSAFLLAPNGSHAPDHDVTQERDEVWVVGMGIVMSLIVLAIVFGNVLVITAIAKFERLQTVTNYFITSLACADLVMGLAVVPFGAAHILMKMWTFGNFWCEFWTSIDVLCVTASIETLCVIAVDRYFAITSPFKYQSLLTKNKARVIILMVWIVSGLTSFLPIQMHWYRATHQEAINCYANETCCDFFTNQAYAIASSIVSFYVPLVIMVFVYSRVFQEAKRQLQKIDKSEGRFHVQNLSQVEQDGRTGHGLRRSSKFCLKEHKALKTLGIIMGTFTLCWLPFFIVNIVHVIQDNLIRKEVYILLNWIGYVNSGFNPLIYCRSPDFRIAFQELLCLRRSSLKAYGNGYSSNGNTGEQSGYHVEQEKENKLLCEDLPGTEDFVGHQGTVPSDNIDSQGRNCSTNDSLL
Chain of Beta-2 adrenergic receptor (Homo sapiens, UniProt P07550, N293Q) (P07550 whole entry N293Q): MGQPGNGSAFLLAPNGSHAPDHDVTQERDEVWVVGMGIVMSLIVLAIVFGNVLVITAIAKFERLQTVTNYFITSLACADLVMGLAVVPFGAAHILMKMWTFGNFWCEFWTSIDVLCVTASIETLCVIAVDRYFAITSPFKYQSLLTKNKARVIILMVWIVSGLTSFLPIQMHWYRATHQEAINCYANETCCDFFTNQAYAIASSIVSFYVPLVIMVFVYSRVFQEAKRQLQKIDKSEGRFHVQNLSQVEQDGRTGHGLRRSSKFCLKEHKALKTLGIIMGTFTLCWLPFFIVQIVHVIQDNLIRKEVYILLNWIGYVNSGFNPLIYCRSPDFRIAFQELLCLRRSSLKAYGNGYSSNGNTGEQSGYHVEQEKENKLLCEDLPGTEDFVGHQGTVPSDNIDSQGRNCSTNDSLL
Chain of Beta-2 adrenergic receptor (Homo sapiens, UniProt P07550, D192G/F193V) (P07550 whole entry D192G/F193V): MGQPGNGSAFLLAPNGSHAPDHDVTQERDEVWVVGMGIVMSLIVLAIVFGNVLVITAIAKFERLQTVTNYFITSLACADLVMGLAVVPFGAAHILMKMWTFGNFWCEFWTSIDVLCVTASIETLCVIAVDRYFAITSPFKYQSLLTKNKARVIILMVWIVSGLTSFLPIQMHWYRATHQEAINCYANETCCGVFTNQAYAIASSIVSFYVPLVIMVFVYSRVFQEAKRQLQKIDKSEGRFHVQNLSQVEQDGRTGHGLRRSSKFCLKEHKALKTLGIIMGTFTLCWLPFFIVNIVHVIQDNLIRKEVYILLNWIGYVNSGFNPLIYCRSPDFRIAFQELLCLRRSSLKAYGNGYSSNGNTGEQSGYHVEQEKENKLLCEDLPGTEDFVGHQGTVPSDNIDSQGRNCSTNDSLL
Chain of Beta-2 adrenergic receptor (Homo sapiens, UniProt P07550, V117C) (P07550 whole entry V117C): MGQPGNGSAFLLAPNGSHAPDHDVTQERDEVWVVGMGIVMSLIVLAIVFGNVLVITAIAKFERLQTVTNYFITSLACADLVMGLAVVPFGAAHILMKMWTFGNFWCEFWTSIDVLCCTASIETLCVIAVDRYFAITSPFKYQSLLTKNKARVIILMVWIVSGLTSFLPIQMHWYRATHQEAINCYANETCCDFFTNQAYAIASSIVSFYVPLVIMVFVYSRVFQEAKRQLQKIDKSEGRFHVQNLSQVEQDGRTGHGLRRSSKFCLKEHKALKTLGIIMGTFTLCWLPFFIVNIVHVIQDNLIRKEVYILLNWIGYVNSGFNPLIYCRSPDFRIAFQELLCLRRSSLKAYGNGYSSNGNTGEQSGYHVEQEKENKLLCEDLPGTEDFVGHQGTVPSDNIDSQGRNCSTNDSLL
Chain of Beta-2 adrenergic receptor (Homo sapiens, UniProt P07550, N293F) (P07550 whole entry N293F): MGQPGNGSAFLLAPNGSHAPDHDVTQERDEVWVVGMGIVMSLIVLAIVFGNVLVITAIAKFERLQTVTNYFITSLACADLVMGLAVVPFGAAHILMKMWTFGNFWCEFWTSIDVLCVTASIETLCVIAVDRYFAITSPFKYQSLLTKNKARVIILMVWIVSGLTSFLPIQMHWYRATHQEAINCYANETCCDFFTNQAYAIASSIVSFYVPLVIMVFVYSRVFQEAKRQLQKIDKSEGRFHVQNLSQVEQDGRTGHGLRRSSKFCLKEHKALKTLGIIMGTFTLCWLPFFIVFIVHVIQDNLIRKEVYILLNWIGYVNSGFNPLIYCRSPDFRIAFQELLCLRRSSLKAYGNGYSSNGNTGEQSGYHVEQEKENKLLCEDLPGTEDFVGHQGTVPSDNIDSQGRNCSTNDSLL
Chain of Beta-2 adrenergic receptor (Homo sapiens, UniProt P07550, N293L) (P07550 whole entry N293L): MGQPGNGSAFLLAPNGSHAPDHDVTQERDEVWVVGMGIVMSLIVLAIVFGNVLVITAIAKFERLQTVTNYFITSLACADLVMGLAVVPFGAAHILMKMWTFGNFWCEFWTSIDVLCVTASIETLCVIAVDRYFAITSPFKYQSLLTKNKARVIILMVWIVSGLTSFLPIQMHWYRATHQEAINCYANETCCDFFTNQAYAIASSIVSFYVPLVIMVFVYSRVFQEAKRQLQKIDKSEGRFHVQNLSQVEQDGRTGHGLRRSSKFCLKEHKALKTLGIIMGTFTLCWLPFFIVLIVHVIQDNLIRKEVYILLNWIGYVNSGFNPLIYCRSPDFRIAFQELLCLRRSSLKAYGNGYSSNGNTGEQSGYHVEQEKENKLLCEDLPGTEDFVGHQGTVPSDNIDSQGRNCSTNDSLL
Chain of Beta-2 adrenergic receptor (Homo sapiens, UniProt P07550, N293A) (P07550 whole entry N293A): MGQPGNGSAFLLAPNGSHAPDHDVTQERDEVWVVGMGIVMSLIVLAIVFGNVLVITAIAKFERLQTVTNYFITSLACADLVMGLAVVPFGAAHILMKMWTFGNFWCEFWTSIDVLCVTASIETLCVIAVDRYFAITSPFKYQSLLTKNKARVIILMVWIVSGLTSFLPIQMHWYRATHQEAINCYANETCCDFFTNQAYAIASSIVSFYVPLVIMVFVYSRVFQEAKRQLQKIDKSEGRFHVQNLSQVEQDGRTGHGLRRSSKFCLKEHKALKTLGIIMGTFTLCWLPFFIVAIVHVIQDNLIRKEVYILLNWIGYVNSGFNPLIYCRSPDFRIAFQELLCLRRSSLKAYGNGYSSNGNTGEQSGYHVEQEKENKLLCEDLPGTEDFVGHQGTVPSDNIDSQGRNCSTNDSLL

For the compound `NC[C@H](O)c1cc(O)c(O)cc1F`, the Ki is 15.8 µM in assay [1]; 39.8 µM in assay [2]; 117 µM in assay [3]; 319 µM in assay [4]; 68.9 µM in assay [5]; 216 µM in assay [6]. This compound showed a Ki in assay [7] of 19.5 µM.

For the compound `NC[C@H](O)c1ccc(O)c(O)c1F`, the Ki in assay [1] was 1160 µM; in assay [2] it was greater than 2000 µM; in assay [3], 188 µM; in assay [4] it was 5450 µM; in assay [5] it was 3330 µM; in assay [6] it was 70.1 µM. The same compound returned a Ki in assay [7] greater than 2000 µM.
